Where a name gives a salt, the structure may show the parent alone.
Experiments:
Assay in all cases: Kinase selectivity panel
Type in all cases: biochemical
[1] = molecular target: Abl kinase (h) (Homo sapiens (Human), UniProt P00519); details: duplicate, read-out: % inhibition of control values, Abl kinase (h)
Method: (§1) (a) Compound 1 was tested against a panel of 60 kinases in order to assess its selectivity. The assays were chosen taking into consideration the diversity of assay families.
(§2) Human recombinant kinases were incubated in the presence of specific peptide substrates plus ATP for different times (10, 15, 30, 60 or 90 minutes) at 22° C. Phosphorylated substrate was detected by LANCE or HTRF technology (CISBIO, MA, USA).
(§3) Compound 1 was tested at 10 μM in duplicate.
(§4) The results are expressed as a percent of inhibition of control specific activity obtained in the presence of the test compound 1 and are reported in the following Table 5.
(§5) (b) Compounds 7, 12, 21 and 24 were tested against the same panel of 60 kinases under the same conditions described above for compound 1.
(§6) The results are expressed as a percent of inhibition of control specific activity obtained in the presence of the test compounds and are reported in the following Table 6.

[2] = molecular target: Akt1/PKBalpha (h) (Homo sapiens (Human), UniProt P31749); details: duplicate, read-out: % inhibition of control values, Akt1/PKBalpha (h)
Chain of Akt1/PKBalpha (h) (P31749 whole entry): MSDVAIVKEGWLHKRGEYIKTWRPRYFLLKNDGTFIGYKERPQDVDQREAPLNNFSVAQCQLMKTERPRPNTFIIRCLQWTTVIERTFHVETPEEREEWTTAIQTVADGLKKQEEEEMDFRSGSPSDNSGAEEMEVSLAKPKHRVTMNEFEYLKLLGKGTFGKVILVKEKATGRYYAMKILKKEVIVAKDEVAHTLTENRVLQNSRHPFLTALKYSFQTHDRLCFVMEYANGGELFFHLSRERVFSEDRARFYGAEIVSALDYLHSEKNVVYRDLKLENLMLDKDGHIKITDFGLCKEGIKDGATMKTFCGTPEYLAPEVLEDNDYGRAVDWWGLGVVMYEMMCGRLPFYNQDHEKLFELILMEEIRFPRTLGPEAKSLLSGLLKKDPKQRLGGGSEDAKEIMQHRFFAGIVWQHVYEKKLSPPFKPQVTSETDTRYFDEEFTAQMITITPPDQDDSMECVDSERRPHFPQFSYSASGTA
Method: as §1, §2, §3, §4, §5, §6

[3] = molecular target: AurB/Aur1 kinase (h) (Homo sapiens (Human), UniProt Q96GD4); details: duplicate, read-out: % inhibition of control values, AurB/Aur1 kinase (h)
Chain of AurB/Aur1 kinase (h) (Q96GD4 whole entry): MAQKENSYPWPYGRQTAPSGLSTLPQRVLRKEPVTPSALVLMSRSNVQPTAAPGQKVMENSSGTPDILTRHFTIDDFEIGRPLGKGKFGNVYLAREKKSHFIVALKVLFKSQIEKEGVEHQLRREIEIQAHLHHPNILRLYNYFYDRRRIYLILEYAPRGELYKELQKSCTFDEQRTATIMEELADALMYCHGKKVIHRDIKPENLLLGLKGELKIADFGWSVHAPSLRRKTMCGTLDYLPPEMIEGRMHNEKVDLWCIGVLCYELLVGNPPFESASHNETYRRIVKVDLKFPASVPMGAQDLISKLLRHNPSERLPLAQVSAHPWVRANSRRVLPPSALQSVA
Method: as §1, §2, §3, §4, §5, §6

[4] = molecular target: CDC2/CDK1 (h) (cycB) (Homo sapiens (Human), UniProt P06493); details: duplicate, read-out: % inhibition of control values, CDC2/CDK1 (h) (cycB)
Method: as §1, §2, §3, §4, §5, §6

[5] = molecular target: CHK1 (h) (Homo sapiens (Human), UniProt O14757); details: duplicate, read-out: % inhibition of control values, CHK1 (h)
Chain of CHK1 (h) (O14757 whole entry): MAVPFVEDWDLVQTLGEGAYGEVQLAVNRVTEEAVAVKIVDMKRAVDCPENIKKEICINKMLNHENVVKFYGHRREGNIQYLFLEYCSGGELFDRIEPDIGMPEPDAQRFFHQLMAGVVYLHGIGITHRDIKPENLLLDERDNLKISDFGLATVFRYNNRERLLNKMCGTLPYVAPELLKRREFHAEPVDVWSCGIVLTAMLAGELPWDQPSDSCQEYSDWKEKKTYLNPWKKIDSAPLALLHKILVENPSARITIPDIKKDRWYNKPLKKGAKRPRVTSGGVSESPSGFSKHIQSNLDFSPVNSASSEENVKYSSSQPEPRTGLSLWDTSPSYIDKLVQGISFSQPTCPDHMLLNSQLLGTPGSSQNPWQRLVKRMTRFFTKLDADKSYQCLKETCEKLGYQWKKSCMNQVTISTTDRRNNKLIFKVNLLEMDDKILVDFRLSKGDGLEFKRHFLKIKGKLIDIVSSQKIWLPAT
Method: as §1, §2, §3, §4, §5, §6

[6] = molecular target: CK1alpha (h) (Homo sapiens (Human), UniProt P48729); details: duplicate, read-out: % inhibition of control values, CK1alpha (h)
Chain of CK1alpha (h) (P48729 whole entry): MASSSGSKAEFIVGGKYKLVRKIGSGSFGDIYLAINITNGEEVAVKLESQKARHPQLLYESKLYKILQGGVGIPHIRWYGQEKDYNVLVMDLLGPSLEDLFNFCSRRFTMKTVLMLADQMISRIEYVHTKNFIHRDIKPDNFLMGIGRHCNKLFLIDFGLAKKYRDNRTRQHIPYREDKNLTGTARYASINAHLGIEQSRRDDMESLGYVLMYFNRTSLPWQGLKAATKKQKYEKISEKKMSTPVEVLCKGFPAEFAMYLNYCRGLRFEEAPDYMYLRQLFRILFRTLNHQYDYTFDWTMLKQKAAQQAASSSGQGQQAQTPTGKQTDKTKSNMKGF
Method: as §1, §2, §3, §4, §5, §6

[7] = molecular target: CaMK4 (h) (Homo sapiens (Human), UniProt Q16566); details: duplicate, read-out: % inhibition of control values, CaMK4 (h)
Method: as §1, §2, §3, §4, §5, §6

[8] = molecular target: DAPK1 (h) (Homo sapiens (Human), UniProt P53355); details: duplicate, read-out: % inhibition of control values, DAPK1 (h)
Method: as §1, §2, §3, §4, §5, §6

[9] = molecular target: DCAMKL1 (h) (Homo sapiens (Human), UniProt O15075); details: duplicate, read-out: % inhibition of control values, DCAMKL1 (h)
Chain of DCAMKL1 (h) (O15075 whole entry): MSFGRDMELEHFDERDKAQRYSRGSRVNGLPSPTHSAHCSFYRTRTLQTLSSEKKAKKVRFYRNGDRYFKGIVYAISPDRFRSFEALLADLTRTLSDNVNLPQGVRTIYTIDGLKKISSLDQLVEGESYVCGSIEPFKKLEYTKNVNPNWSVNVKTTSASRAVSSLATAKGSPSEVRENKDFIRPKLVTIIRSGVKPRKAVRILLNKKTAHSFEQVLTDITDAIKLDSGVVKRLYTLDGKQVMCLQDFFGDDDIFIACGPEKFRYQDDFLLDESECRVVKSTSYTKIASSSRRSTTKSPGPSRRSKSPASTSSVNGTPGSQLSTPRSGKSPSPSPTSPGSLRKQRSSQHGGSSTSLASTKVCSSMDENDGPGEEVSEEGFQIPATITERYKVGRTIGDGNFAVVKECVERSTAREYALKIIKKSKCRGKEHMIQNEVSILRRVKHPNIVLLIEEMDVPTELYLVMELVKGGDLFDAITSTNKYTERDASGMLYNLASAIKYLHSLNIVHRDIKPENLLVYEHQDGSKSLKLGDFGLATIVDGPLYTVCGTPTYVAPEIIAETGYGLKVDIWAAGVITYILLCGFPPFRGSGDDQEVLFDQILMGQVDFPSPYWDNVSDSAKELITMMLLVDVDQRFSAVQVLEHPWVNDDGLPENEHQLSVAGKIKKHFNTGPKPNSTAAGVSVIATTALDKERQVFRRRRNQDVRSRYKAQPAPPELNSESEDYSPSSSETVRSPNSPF
Method: as §1, §2, §3, §4, §5, §6

[10] = molecular target: ERK1 (h) (Homo sapiens (Human), UniProt P27361); details: duplicate, read-out: % inhibition of control values, ERK1 (h)
Method: as §1, §2, §3, §4, §5, §6

[11] = molecular target: Fyn kinase (h) (Homo sapiens (Human), UniProt P06241); details: duplicate, read-out: % inhibition of control values, Fyn kinase (h)
Method: as §1, §2, §3, §4, §5, §6

[12] = molecular target: IKKalpha (h) (Homo sapiens (Human), UniProt O15111); details: duplicate, read-out: % inhibition of control values, IKKalpha (h)
Method: as §1, §2, §3, §4, §5, §6

[13] = molecular target: IKKepsilon (h) (IKBKE) (Homo sapiens (Human), UniProt Q14164); details: duplicate, read-out: % inhibition of control values, IKKepsilon (h) (IKBKE)
Method: as §1, §2, §3, §4, §5, §6

[14] = molecular target: IRAK4 (h) (Homo sapiens (Human), UniProt Q9NWZ3); details: duplicate, read-out: % inhibition of control values, IRAK4 (h)
Method: as §1, §2, §3, §4, §5, §6

[15] = molecular target: MAPKAPK2 (h) (Homo sapiens (Human), UniProt P49137); details: duplicate, read-out: % inhibition of control values, MAPKAPK2 (h)
Chain of MAPKAPK2 (h) (P49137 whole entry): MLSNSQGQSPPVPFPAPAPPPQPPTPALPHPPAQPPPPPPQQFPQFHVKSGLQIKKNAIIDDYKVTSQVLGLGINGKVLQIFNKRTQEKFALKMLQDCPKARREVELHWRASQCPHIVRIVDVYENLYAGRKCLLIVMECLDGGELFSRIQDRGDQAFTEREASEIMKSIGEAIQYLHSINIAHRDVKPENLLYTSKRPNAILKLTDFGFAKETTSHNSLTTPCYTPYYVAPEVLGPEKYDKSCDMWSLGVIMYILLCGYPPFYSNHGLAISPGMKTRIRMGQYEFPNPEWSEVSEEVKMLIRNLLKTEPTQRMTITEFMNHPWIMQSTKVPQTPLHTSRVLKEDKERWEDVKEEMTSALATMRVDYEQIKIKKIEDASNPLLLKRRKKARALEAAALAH
Method: as §1, §2, §3, §4, §5, §6

[16] = molecular target: MNK2 (h) (Homo sapiens (Human), UniProt Q9HBH9); details: duplicate, read-out: % inhibition of control values, MNK2 (h)
Method: as §1, §2, §3, §4, §5, §6

[17] = molecular target: MYT1 kinase (h) (Homo sapiens (Human), UniProt Q99640); details: duplicate, read-out: % inhibition of control values, MYT1 kinase (h)
Method: as §1, §2, §3, §4, §5, §6

[18] = molecular target: NEK7 (h) (Homo sapiens (Human), UniProt Q8TDX7); details: duplicate, read-out: % inhibition of control values, NEK7 (h)
Method: as §1, §2, §3, §4, §5, §6

[19] = molecular target: PAK1 (h) (Homo sapiens (Human), UniProt Q13153); details: duplicate, read-out: % inhibition of control values, PAK1 (h)
Chain of PAK1 (h) (Q13153 whole entry): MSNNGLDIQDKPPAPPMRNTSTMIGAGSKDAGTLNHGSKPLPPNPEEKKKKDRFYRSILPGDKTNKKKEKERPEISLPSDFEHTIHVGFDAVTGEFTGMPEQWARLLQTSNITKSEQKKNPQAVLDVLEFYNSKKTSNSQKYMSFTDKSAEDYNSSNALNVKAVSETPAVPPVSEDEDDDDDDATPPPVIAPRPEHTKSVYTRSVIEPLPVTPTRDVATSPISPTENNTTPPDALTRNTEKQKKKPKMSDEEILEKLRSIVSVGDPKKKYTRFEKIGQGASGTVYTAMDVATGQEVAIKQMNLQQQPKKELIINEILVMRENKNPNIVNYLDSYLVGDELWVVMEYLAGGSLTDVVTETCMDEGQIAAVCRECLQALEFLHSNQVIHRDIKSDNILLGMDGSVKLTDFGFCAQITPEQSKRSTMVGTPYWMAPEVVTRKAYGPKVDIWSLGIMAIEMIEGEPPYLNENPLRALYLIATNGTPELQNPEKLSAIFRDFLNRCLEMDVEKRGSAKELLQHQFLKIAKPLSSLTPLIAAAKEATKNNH
Method: as §1, §2, §3, §4, §5, §6

[20] = molecular target: PKA (h) (Homo sapiens (Human), UniProt P17612); details: duplicate, read-out: % inhibition of control values, PKA (h)
Method: as §1, §2, §3, §4, §5, §6

[21] = molecular target: PKCalpha (h) (Homo sapiens (Human), UniProt P17252); details: duplicate, read-out: % inhibition of control values, PKCalpha (h)
Method: as §1, §2, §3, §4, §5, §6

[22] = molecular target: PKCbeta 1 (h) (Homo sapiens (Human), UniProt P05771); details: duplicate, read-out: % inhibition of control values, PKCbeta 1 (h)
Method: as §1, §2, §3, §4, §5, §6

[23] = molecular target: PKCgamma (h) (Homo sapiens (Human), UniProt P05129); details: duplicate, read-out: % inhibition of control values, PKCgamma (h)
Method: as §1, §2, §3, §4, §5, §6

[24] = molecular target: Pim2 kinase (h) (Homo sapiens (Human), UniProt Q9P1W9); details: duplicate, read-out: % inhibition of control values, Pim2 kinase (h)
Chain of Pim2 kinase (h) (Q9P1W9 whole entry): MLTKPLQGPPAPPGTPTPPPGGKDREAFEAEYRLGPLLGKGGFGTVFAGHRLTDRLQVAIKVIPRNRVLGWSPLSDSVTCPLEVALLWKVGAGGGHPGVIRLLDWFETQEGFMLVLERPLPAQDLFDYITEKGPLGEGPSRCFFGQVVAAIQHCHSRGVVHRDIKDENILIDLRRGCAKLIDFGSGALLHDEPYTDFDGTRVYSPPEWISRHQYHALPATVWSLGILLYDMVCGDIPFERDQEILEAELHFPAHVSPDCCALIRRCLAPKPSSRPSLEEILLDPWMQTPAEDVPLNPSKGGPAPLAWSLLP
Method: as §1, §2, §3, §4, §5, §6

[25] = molecular target: Src kinase (h) (Homo sapiens (Human), UniProt P12931); details: duplicate, read-out: % inhibition of control values, Src kinase (h)
Method: as §1, §2, §3, §4, §5, §6

[26] = molecular target: p38delta kinase (h) (Homo sapiens (Human), UniProt O15264); details: duplicate, read-out: % inhibition of control values, p38delta kinase (h)
Method: as §1, §2, §3, §4, §5, §6

Chain of Abl kinase (h) (P00519 whole entry): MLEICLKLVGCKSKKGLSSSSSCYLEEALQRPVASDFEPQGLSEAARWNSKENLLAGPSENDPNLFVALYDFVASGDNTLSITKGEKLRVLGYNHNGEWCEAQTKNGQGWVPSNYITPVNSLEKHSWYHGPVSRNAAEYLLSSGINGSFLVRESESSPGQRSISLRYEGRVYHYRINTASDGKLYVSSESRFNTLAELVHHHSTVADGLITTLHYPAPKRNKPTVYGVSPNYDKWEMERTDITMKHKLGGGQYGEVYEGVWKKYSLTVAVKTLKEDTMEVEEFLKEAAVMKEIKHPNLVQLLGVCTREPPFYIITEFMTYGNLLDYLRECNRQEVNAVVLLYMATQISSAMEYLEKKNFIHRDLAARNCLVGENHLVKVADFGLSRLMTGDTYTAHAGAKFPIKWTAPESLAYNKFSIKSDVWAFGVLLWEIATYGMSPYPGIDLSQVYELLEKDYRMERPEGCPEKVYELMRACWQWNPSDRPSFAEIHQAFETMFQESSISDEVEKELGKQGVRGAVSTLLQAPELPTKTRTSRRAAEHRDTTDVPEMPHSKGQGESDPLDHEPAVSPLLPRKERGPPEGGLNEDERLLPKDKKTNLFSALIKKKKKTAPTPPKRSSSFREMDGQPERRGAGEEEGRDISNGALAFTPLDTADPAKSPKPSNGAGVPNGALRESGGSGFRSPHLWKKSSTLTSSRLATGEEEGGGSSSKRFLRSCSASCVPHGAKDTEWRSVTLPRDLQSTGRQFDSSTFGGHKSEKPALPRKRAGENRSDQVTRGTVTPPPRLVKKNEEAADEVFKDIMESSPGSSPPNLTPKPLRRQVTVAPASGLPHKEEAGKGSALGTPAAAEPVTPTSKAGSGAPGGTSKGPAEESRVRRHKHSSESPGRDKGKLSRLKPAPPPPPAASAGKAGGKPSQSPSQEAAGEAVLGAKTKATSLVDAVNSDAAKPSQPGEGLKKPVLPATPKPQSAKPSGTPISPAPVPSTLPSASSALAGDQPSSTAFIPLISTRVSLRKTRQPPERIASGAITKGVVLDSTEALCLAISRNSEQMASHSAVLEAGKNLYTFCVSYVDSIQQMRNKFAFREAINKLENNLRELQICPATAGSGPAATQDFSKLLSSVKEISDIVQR

SMILES	inhibition at 10 µM [1]	inhibition at 10 µM [2]	inhibition at 10 µM [3]	inhibition at 10 µM [4]	inhibition at 10 µM [5]	inhibition at 10 µM [6]	inhibition at 10 µM [7]	inhibition at 10 µM [8]	inhibition at 10 µM [9]	inhibition at 10 µM [10]	inhibition at 10 µM [11]	inhibition at 10 µM [12]	inhibition at 10 µM [13]	inhibition at 10 µM [14]	inhibition at 10 µM [15]	inhibition at 10 µM [16]	inhibition at 10 µM [17]	inhibition at 10 µM [18]	inhibition at 10 µM [19]	inhibition at 10 µM [20]	also measured
COc1ccc2[nH]nc(C(=O)NCC3CCN(CCc4ccc(O)cc4)CC3)c2c1 [Compound 1, N-({1-[2-(4-hydroxyphenyl)ethyl]-piperidin-4-yl}methyl)-5-methoxy-1H-indazole-3-carboxamide]	0%	7%	11%	31%	12%	15%	14%	10%	4%	35%	13%	0%	4%	0%	0%	1%	1%	9%	4%	0%	inhibition at 10 µM [21]: 8%; inhibition at 10 µM [22]: 9%; inhibition at 10 µM [23]: 0%; inhibition at 10 µM [24]: 4%; inhibition at 10 µM [25]: 0%; inhibition at 10 µM [26]: 12%
COc1ccncc1-c1ccc2[nH]nc(C(=O)NCC3CCN(Cc4ccc(C(=O)O)o4)CC3)c2c1 [Compound 21, 5-({4-[({[5-(4-Methoxypyridin-3-yl)-1H-indazol-3-yl]carbonyl}amino)methyl]piperidin-1-yl}methyl)furan-2-carboxylic acid formate]	0%	0%	10%	99%	1%	2%	13%	5%	0%	81%	10%	5%	21%	18%	0%	6%	0%	5%	4%	3%	inhibition at 10 µM [21]: 20%; inhibition at 10 µM [22]: 0%; inhibition at 10 µM [23]: 0%; inhibition at 10 µM [24]: 5%; inhibition at 10 µM [25]: 0%; inhibition at 10 µM [26]: 35%
COc1ccc2[nH]nc(C(=O)NCC3CCN(Cc4ccc(C(=O)O)o4)CC3)c2c1 [Compound 24, 5-{[4-({[(5-Methoxy-1H-indazol-3-yl)carbonyl]amino}methyl)piperidin-1-yl]methyl}furan-2-carboxylic acid]	0%	0%	0%	10%	0%	0%	11%	15%	0%	22%	3%	2%	0%	1%	0%	0%	0%	3%	1%	0%	inhibition at 10 µM [21]: 0%; inhibition at 10 µM [22]: 0%; inhibition at 10 µM [23]: 0%; inhibition at 10 µM [24]: 3%; inhibition at 10 µM [25]: 0%; inhibition at 10 µM [26]: 4%

From US9163013B2, “Use of 1H-indazole-3-carboxamide compounds as glycogen synthase kinase 3 beta inhibitors” (AZIENDE CHIMICHE RIUNITE ANGELINI FRANCESCO A.C.R.A.F. …, priority 2012, dated 2015)
